Source: US9707305B2, “Formulas for diagnosing and treating hormone-dependent cancers and cancers of the organs responsible for steroid hormone synthesis” (Commissariat à l'énergie atomique et aux énergies …, priority 2011, dated 2017)

Assay: Biodistribution of the nano-emulsion of Example 1.1 in male mice (Tables 15 to 21)
Format: in vivo
Conditions: FVB male mouse
Experimental: In the following examples, the radioactivity was counted with the TRiCarb Counter (Ref: Packard, Liquid Scintillation Analyzers; Models 2200CA).
Fluobeam 700 (Fluoptics) is the apparatus with which the whole of the organs from the biodistribution were analyzed in fluorescence as well as the one with which the biodistribution kinetics of the nano-emulsions were established in vivo. This imaging system allows viewing of the fluorescence in spectral bands from 700 to 850 nm for a 650 nm excitation. The apparatus consists of an electric case containing the laser of class 3B, its power supply and an optical head containing the CCD camera. […]

CCCCCCCCCCCCCCCCO[C@H]1CC[C@@]2(C)C(=CC[C@H]3[C@@H]4CC[C@H]([C@H](C)CCCC(C)C)[C@@]4(C)CC[C@@H]32)C1 [[3H]CHE, cholesteryl hexadecylether]
tracer in Adrenal gland (2 h): 10.16 percentage of the dose injected per gram of tissue | tracer in Adrenal gland (4 h): 16.96 percentage of the dose injected per gram of tissue | tracer in Adrenal gland (6 h): 13.399 percentage of the dose injected per gram of tissue | tracer in Adrenal gland (16 h): 32.89 percentage of the dose injected per gram of tissue | tracer in Adrenal gland (24 h): 17.41 percentage of the dose injected per gram of tissue | tracer in Adrenal gland (48 h): 25.12 percentage of the dose injected per gram of tissue | tracer in Adrenal gland (72 h): 46.41 percentage of the dose injected per gram of tissue | tracer in Brain (2 h): 0.35 percentage of the dose injected per gram of tissue | tracer in Brain (4 h): 0.23 percentage of the dose injected per gram of tissue | tracer in Brain (6 h): 0.24 percentage of the dose injected per gram of tissue | tracer in Brain (16 h): 0.18 percentage of the dose injected per gram of tissue | tracer in Brain (24 h): 0.11 percentage of the dose injected per gram of tissue | tracer in Brain (48 h): 0.10 percentage of the dose injected per gram of tissue | tracer in Brain (72 h): 0.11 percentage of the dose injected per gram of tissue | tracer in Fat (2 h): 1.14 percentage of the dose injected per gram of tissue | tracer in Fat (4 h): 0.74 percentage of the dose injected per gram of tissue | tracer in Fat (6 h): 1.234 percentage of the dose injected per gram of tissue | tracer in Fat (16 h): 1.70 percentage of the dose injected per gram of tissue | tracer in Fat (24 h): 0.83 percentage of the dose injected per gram of tissue | tracer in Fat (48 h): 0.94 percentage of the dose injected per gram of tissue | tracer in Fat (72 h): 0.70 percentage of the dose injected per gram of tissue | tracer in Heart (2 h): 9.84 percentage of the dose injected per gram of tissue | tracer in Heart (4 h): 7.57 percentage of the dose injected per gram of tissue | tracer in Heart (6 h): 8.52 percentage of the dose injected per gram of tissue | tracer in Heart (16 h): 8.50 percentage of the dose injected per gram of tissue | tracer in Heart (24 h): 5.76 percentage of the dose injected per gram of tissue | tracer in Heart (48 h): 6.05 percentage of the dose injected per gram of tissue | tracer in Heart (72 h): 7.83 percentage of the dose injected per gram of tissue | tracer in Intestine (2 h): 2.44 percentage of the dose injected per gram of tissue | tracer in Intestine (4 h): 1.98 percentage of the dose injected per gram of tissue | tracer in Intestine (6 h): 2.549 percentage of the dose injected per gram of tissue | tracer in Intestine (16 h): 5.19 percentage of the dose injected per gram of tissue | tracer in Intestine (24 h): 3.41 percentage of the dose injected per gram of tissue | tracer in Intestine (48 h): 3.50 percentage of the dose injected per gram of tissue | tracer in Intestine (72 h): 3.47 percentage of the dose injected per gram of tissue | tracer in Kidney (2 h): 5.29 percentage of the dose injected per gram of tissue | tracer in Kidney (4 h): 3.14 percentage of the dose injected per gram of tissue | tracer in Kidney (6 h): 3.336 percentage of the dose injected per gram of tissue | tracer in Kidney (16 h): 2.40 percentage of the dose injected per gram of tissue | tracer in Kidney (24 h): 1.80 percentage of the dose injected per gram of tissue | tracer in Kidney (48 h): 1.77 percentage of the dose injected per gram of tissue | tracer in Kidney (72 h): 1.82 percentage of the dose injected per gram of tissue | tracer in Liver (2 h): 22.67 percentage of the dose injected per gram of tissue | tracer in Liver (4 h): 17.25 percentage of the dose injected per gram of tissue | tracer in Liver (6 h): 22.609 percentage of the dose injected per gram of tissue | tracer in Liver (16 h): 40.91 percentage of the dose injected per gram of tissue | tracer in Liver (24 h): 30.93 percentage of the dose injected per gram of tissue | tracer in Liver (48 h): 24.53 percentage of the dose injected per gram of tissue | tracer in Liver (72 h): 24.97 percentage of the dose injected per gram of tissue | tracer in Lung (2 h): 5.08 percentage of the dose injected per gram of tissue | tracer in Lung (4 h): 2.98 percentage of the dose injected per gram of tissue | tracer in Lung (6 h): 3.771 percentage of the dose injected per gram of tissue | tracer in Lung (16 h): 5.31 percentage of the dose injected per gram of tissue | tracer in Lung (24 h): 2.88 percentage of the dose injected per gram of tissue | tracer in Lung (48 h): 3.02 percentage of the dose injected per gram of tissue | tracer in Lung (72 h): 3.04 percentage of the dose injected per gram of tissue | tracer in Muscle (2 h): 0.99 percentage of the dose injected per gram of tissue | tracer in Muscle (4 h): 0.56 percentage of the dose injected per gram of tissue | tracer in Muscle (6 h): 0.77 percentage of the dose injected per gram of tissue | tracer in Muscle (16 h): 0.97 percentage of the dose injected per gram of tissue | tracer in Muscle (24 h): 0.38 percentage of the dose injected per gram of tissue | tracer in Muscle (48 h): 0.63 percentage of the dose injected per gram of tissue | tracer in Muscle (72 h): 0.49 percentage of the dose injected per gram of tissue | tracer in Ovary (Ovary, 24 h): 1.71 percentage of the dose injected per gram of tissue | tracer in Pancreas (2 h): 1.64 percentage of the dose injected per gram of tissue | tracer in Pancreas (4 h): 1.50 percentage of the dose injected per gram of tissue | tracer in Pancreas (6 h): 1.67 percentage of the dose injected per gram of tissue | tracer in Pancreas (16 h): 1.92 percentage of the dose injected per gram of tissue | tracer in Pancreas (24 h): 1.31 percentage of the dose injected per gram of tissue | tracer in Pancreas (48 h): 0.99 percentage of the dose injected per gram of tissue | tracer in Pancreas (72 h): 1.12 percentage of the dose injected per gram of tissue | tracer in Salivary gland (2 h): 1.53 percentage of the dose injected per gram of tissue | tracer in Salivary gland (4 h): 1.26 percentage of the dose injected per gram of tissue | tracer in Salivary gland (6 h): 2.10 percentage of the dose injected per gram of tissue | tracer in Salivary gland (16 h): 2.68 percentage of the dose injected per gram of tissue | tracer in Salivary gland (24 h): 1.57 percentage of the dose injected per gram of tissue | tracer in Salivary gland (48 h): 2.07 percentage of the dose injected per gram of tissue | tracer in Salivary gland (72 h): 2.36 percentage of the dose injected per gram of tissue | tracer in Seminal gland (4 h): 0.50 percentage of the dose injected per gram of tissue | tracer in Seminal gland (6 h): 0.54 percentage of the dose injected per gram of tissue | tracer in Seminal gland (16 h): 0.64 percentage of the dose injected per gram of tissue | tracer in Seminal gland (24 h): 0.35 percentage of the dose injected per gram of tissue | tracer in Seminal gland (48 h): 0.35 percentage of the dose injected per gram of tissue | tracer in Seminal gland (72 h): 0.58 percentage of the dose injected per gram of tissue | tracer in Seminal glands (Seminal glands, 2 h): 0.79 percentage of the dose injected per gram of tissue | tracer in Spleen (2 h): 7.15 percentage of the dose injected per gram of tissue | tracer in Spleen (4 h): 5.31 percentage of the dose injected per gram of tissue | tracer in Spleen (6 h): 6.453 percentage of the dose injected per gram of tissue | tracer in Spleen (16 h): 9.19 percentage of the dose injected per gram of tissue | tracer in Spleen (24 h): 6.65 percentage of the dose injected per gram of tissue | tracer in Spleen (48 h): 11.18 percentage of the dose injected per gram of tissue | tracer in Spleen (72 h): 6.40 percentage of the dose injected per gram of tissue | tracer in Testicle (2 h): 1.36 percentage of the dose injected per gram of tissue | tracer in Testicle (4 h): 1.35 percentage of the dose injected per gram of tissue | tracer in Testicle (6 h): 2.000 percentage of the dose injected per gram of tissue | tracer in Testicle (16 h): 2.95 percentage of the dose injected per gram of tissue | tracer in Testicle (48 h): 2.97 percentage of the dose injected per gram of tissue | tracer in Testicle (72 h): 4.34 percentage of the dose injected per gram of tissue
